Test results as given in US20230011869A1 (Hoffmann-La Roche Inc., priority 2018, published 2023).
Where a name gives a salt, the structure may show the parent alone.

tested on: Acinetobacter baumannii ATCC17978; experiment: Antimicrobial susceptibility testing: 90% growth inhibitory concentration (IC90) determination, Iso-Sensitest broth; format: cell-based; conditions: 90% growth inhibitory concentration, Acinetobacter baumannii ATCC17978, Iso-Sensitest broth, OD 600 nm over 16 h; read-out: ATCC17978 IC90
Outline: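 A. baumannii ATCC17978 grown in Iso-Sensitest broth across 10 compound concentrations at 35±2 °C.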

Compound | IC90
Cc1cc(Nc2nccn3c(-c4ccc(OC(F)F)cc4)cnc23)ccc1C(=O)N1CCN(C(=O)N2CCNC(CO)C2)CC1 (centres unmarked) [Example 133, [4-[[3-[4-(difluoromethoxy)phenyl]imidazo[1,2-a]pyrazin-8-yl]amino]-2-methyl-phenyl]-[4-[3-(hydroxymethyl)piperazine-1-carbonyl]piperazin-1-yl]methanone hydrochloride] | 230 nM
Cc1cc(Nc2nccn3c(-c4ccc(OC(F)F)cc4)cnc23)ccc1C(=O)N1CCN(C(=O)N2CCOC(CN)C2)CC1 (centres unmarked) [Example 134, [4-[2-(aminomethyl)morpholine-4-carbonyl]piperazin-1-yl]-[4-[[3-[4-(difluoromethoxy)phenyl]imidazo[1,2-a]pyrazin-8-yl]amino]-2-methyl-phenyl]methanone hydrochloride] | 260 nM
Cc1cc(Nc2nccn3c(-c4ccc(OC(F)F)cc4)cnc23)ccc1C(=O)N1CCN(C(=O)N(C)C)CC1 [Example 135, 4-[4-[[3-[4-(difluoromethoxy)phenyl]imidazo[1,2-a]pyrazin-8-yl]amino]-2-methyl-benzoyl]-N,N-dimethyl-piperazine-1-carboxamide] | 280 nM
CNCC1CN(C(=O)N2CCN(C(=O)c3ccc(Nc4nccn5c(-c6ccc(OC(F)F)cc6)cnc45)cc3C)CC2)CCO1 (centres unmarked) [Example 136, [4-[[3-[4-(difluoromethoxy)phenyl]imidazo[1,2-a]pyrazin-8-yl]amino]-2-methyl-phenyl]-[4-[2-(methylaminomethyl)morpholine-4-carbonyl]piperazin-1-yl]methanone hydrochloride] | 270 nM
Cc1cc(Nc2nccn3c(-c4ccc(OCC#N)c(F)c4F)cnc23)ccc1C(=O)N1CCN(C(=O)N2CCNCC2)CC1 [Example 137, 2-[2,3-difluoro-4-[8-[3-methyl-4-[4-(piperazine-1-carbonyl)piperazine-1-carbonyl]anilino]imidazo[1,2-a]pyrazin-3-yl]phenoxy]acetonitrile formate] | 130 nM
Cc1cc(Nc2nccn3c(-c4ccc(OC(F)F)cc4)cnc23)ccc1C(=O)N1CCN(C(=O)N[C@H]2CCNC2)CC1 [Example 138, 4-[4-[[3-[4-(difluoromethoxy)phenyl]imidazo[1,2-a]pyrazin-8-yl]amino]-2-methyl-benzoyl]-N-[(3S)-pyrrolidin-3-yl]piperazine-1-carboxamide hydrochloride] | 110 nM
Cc1cc(Nc2nccn3c(-c4ccc(OCC#N)c(F)c4F)cnc23)ccc1C(=O)N1CCN(C(=O)NCCN)CC1 [Example 139, N-(2-aminoethyl)-4-[4-[[3-[4-(cyanomethoxy)-2,3-difluoro-phenyl]imidazo[1,2-a]pyrazin-8-yl]amino]-2-methyl-benzoyl]piperazine-1-carboxamide formate] | 130 nM
COc1ccc(-c2cnc3c(Nc4ccc(C(=O)N5CCN(C(=O)N6CCO[C@H](CN)C6)CC5)c(C)c4)nccn23)c(F)c1F [Example 140, [4-[(2R)-2-(aminomethyl)morpholine-4-carbonyl]piperazin-1-yl]-[4-[[3-(2,3-difluoro-4-methoxy-phenyl)imidazo[1,2-a]pyrazin-8-yl]amino]-2-methyl-phenyl]methanone formate] | 190 nM
Cc1cc(Nc2nccn3c(-c4ccc(OC(F)F)cc4)cnc23)ccc1C(=O)N1CCN(C(=O)N[C@@H]2CCNC2)CC1 [Example 142, 4-[4-[[3-[4-(difluoromethoxy)phenyl]imidazo[1,2-a]pyrazin-8-yl]amino]-2-methyl-benzoyl]-N-[(3R)-pyrrolidin-3-yl]piperazine-1-carboxamide hydrochloride] | 150 nM
Cc1cc(Nc2nccn3c(-c4ccc(OC(F)F)cc4)cnc23)ccc1C(=O)N1CCN(C(=O)NC2CCNCC2)CC1 [Example 143, 4-[4-[[3-[4-(difluoromethoxy)phenyl]imidazo[1,2-a]pyrazin-8-yl]amino]-2-methyl-benzoyl]-N-(4-piperidyl)piperazine-1-carboxamide hydrochloride] | 160 nM
Cc1cc(Nc2nccn3c(-c4ccc(OC(F)F)cc4)cnc23)ccc1C(=O)N1CCN(C(=O)NCC2CNC2)CC1 [Example 144, N-(azetidin-3-ylmethyl)-4-[4-[[3-[4-(difluoromethoxy)phenyl]imidazo[1,2-a]pyrazin-8-yl]amino]-2-methyl-benzoyl]piperazine-1-carboxamide formate] | 130 nM
COc1ccc(-c2cnc3c(Nc4ccc(C(=O)N5CCN(C(=O)N6CCO[C@@H](CN)C6)CC5)c(C)c4)nccn23)c(F)c1F [Example 145, [4-[(2S)-2-(aminomethyl)morpholine-4-carbonyl]piperazin-1-yl]-[4-[[3-(2,3-difluoro-4-methoxy-phenyl)imidazo[1,2-a]pyrazin-8-yl]amino]-2-methyl-phenyl]methanone formate] | 170 nM
Cc1cc(Nc2nccn3c(-c4ccc(OC(F)F)cc4)cnc23)ccc1C(=O)N1CCN(C(=O)N2CCO[C@@H](CN)C2)CC1 [Example 146, [4-[(2S)-2-(aminomethyl)morpholine-4-carbonyl]piperazin-1-yl]-[4-[[3-[4-(difluoromethoxy)phenyl]imidazo[1,2-a]pyrazin-8-yl]amino]-2-methyl-phenyl]methanone formate] | 300 nM
COc1ccc(-c2cnc3c(Nc4ccc(C(=O)N5CCN(C(=O)N[C@@H](C)CN)CC5)c(C)c4)nccn23)c(F)c1F [Example 147, N-[(1S)-2-amino-1-methyl-ethyl]-4-[4-[[3-(2,3-difluoro-4-methoxy-phenyl)imidazo[1,2-a]pyrazin-8-yl]amino]-2-methyl-benzoyl]piperazine-1-carboxamide hydrochloride] | 210 nM
COc1ccc(-c2cnc3c(Nc4ccc(C(=O)N5CCN(C(=O)N[C@H](C)CN)CC5)c(C)c4)nccn23)c(F)c1F [Example 148, N-[(1R)-2-amino-1-methyl-ethyl]-4-[4-[[3-(2,3-difluoro-4-methoxy-phenyl)imidazo[1,2-a]pyrazin-8-yl]amino]-2-methyl-benzoyl]piperazine-1-carboxamide hydrochloride] | 210 nM

Other lines, results leading:

IC90 | Compound
180 nM | COc1ccc(-c2cnc3c(Nc4ccc(C(=O)N5CCN(C(=O)NC[C@H](C)N)CC5)c(C)c4)nccn23)c(F)c1F [Example 149, N-[(2S)-2-aminopropyl]-4-[4-[[3-(2,3-difluoro-4-methoxy-phenyl)imidazo[1,2-a]pyrazin-8-yl]amino]-2-methyl-benzoyl]piperazine-1-carboxamide]
140 nM | Cc1cc(Nc2nccn3c(-c4ccc(OC(F)F)cc4)cnc23)ccc1C(=O)N1CCN(C(=O)NC[C@@H](C)N)CC1 [Example 150, N-[(2R)-2-aminopropyl]-4-[4-[[3-[4-(difluoromethoxy)phenyl]imidazo[1,2-a]pyrazin-8-yl]amino]-2-methyl-benzoyl]piperazine-1-carboxamide hydrochloride]
140 nM | Cc1cc(Nc2nccn3c(-c4ccc(OC(F)F)cc4)cnc23)ccc1C(=O)N1CCN(C(=O)NC[C@H](C)N)CC1 [Example 151, N-[(2S)-2-aminopropyl]-4-[4-[[3-[4-(difluoromethoxy)phenyl]imidazo[1,2-a]pyrazin-8-yl]amino]-2-methyl-benzoyl]piperazine-1-carboxamide hydrochloride]
110 nM | COc1ccc(-c2cnc3c(Nc4ccc(C(=O)N5CCN(C(=O)NC[C@@H](C)N)CC5)c(C)c4)nccn23)c(F)c1F [Example 152, N-[(2R)-2-aminopropyl]-4-[4-[[3-(2,3-difluoro-4-methoxy-phenyl)imidazo[1,2-a]pyrazin-8-yl]amino]-2-methyl-benzoyl]piperazine-1-carboxamide hydrochloride]
150 nM | COc1ccc(-c2cnc3c(Nc4ccc(C(=O)N5CCN(C(=O)NC[C@@H](C)N)CC5)c(C)c4)nccn23)c(Cl)c1F [Example 155, N-[(2R)-2-aminopropyl]-4-[4-[[3-(2-chloro-3-fluoro-4-methoxy-phenyl)imidazo[1,2-a]pyrazin-8-yl]amino]-2-methyl-benzoyl]piperazine-1-carboxamide formate]
180 nM | COc1ccc(-c2cnc3c(Nc4ccc(C(=O)N5CCN(C(=O)NC[C@H](C)N)CC5)c(C)c4)nccn23)c(Cl)c1F [Example 156, N-[(2S)-2-aminopropyl]-4-[4-[[3-(2-chloro-3-fluoro-4-methoxy-phenyl)imidazo[1,2-a]pyrazin-8-yl]amino]-2-methyl-benzoyl]piperazine-1-carboxamide formate]
92 nM | Cc1cc(Nc2nccn3c(-c4ccc(OCC#N)c(F)c4Cl)cnc23)ccc1C(=O)N1CCN(C(=O)N2CCO[C@H](CN)C2)CC1 [Example 157, 2-[4-[8-[4-[4-[(2R)-2-(aminomethyl)morpholine-4-carbonyl]piperazine-1-carbonyl]-3-methyl-anilino]imidazo[1,2-a]pyrazin-3-yl]-3-chloro-2-fluoro-phenoxy]acetonitrile formate]
100 nM | Cc1cc(Nc2nccn3c(-c4ccc(OCC#N)c(F)c4Cl)cnc23)ccc1C(=O)N1CCN(C(=O)N[C@H](C)CN)CC1 [Example 160, N-[(1R)-2-amino-1-methyl-ethyl]-4-[4-[[3-[2-chloro-4-(cyanomethoxy)-3-fluoro-phenyl]imidazo[1,2-a]pyrazin-8-yl]amino]-2-methyl-benzoyl]piperazine-1-carboxamide formate]
71 nM | Cc1cc(Nc2nccn3c(-c4ccc(OCC#N)c(F)c4Cl)cnc23)ccc1C(=O)N1CCN(C(=O)NC[C@@H](C)N)CC1 [Example 164, N-[(2R)-2-aminopropyl]-4-[4-[[3-[2-chloro-4-(cyanomethoxy)-3-fluoro-phenyl]imidazo[1,2-a]pyrazin-8-yl]amino]-2-methyl-benzoyl]piperazine-1-carboxamide formate]
71 nM | Cc1cc(Nc2nccn3c(-c4ccc(OCC#N)c(F)c4Cl)cnc23)ccc1C(=O)N1CCN(C(=O)NC[C@H](C)N)CC1 [Example 165, N-[(2S)-2-aminopropyl]-4-[4-[[3-[2-chloro-4-(cyanomethoxy)-3-fluoro-phenyl]imidazo[1,2-a]pyrazin-8-yl]amino]-2-methyl-benzoyl]piperazine-1-carboxamide formate]
200 nM | COc1ccc(-c2cnc3c(Nc4ccc(C(=O)N5CCN(C(=O)N[C@H](C)CN)CC5)c(C)c4)nccn23)c(Cl)c1F [Example 166, formate]
